The supplement of paper PMC10307832

Tests used:
Test in all cases: relative viability (nuclei count vs DMSO), 5 days (fraction); higher = more cells survive
[1] = compound: CN(C)C/C=C/C(=O)Nc1cc2c(Nc3ccc(F)c(Cl)c3)ncnc2cc1O[C@H]1CCOC1 [Afatinib] + Cc1nc(NC(=O)N2CCC[C@H]2C(N)=O)sc1-c1ccnc(C(C)(C)C(F)(F)F)c1 [Alpelisib] (partner 2 µM)
In short: (§1)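 For relative viability, nuclei counts in treated wells were divided by those in vehicle wells. Lung cancer cell lines had been pin-tool dosed in 1536-well plates the day after seeding and cultured for 5 days, then fixed and stained in one step (final 0.05% Triton X-100, 1% formaldehyde, 1 ug/ml Hoechst) and imaged at 4×. Doses were one drug alone or a fixed anchor-drug dose plus five library-drug doses (not always all listed) in √10 steps, and values are duplicate-plate medians.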

[2] = compound: CN(C)C/C=C/C(=O)Nc1cc2c(Nc3ccc(F)c(Cl)c3)ncnc2cc1O[C@H]1CCOC1 [Afatinib] + O=C(CCCCCCC(=O)Nc1ccccc1)NO [Vorinostat] (partner 1 µM)
In short: as §1

[3] = compound: CN(C)C/C=C/C(=O)Nc1cc2c(Nc3ccc(F)c(Cl)c3)ncnc2cc1O[C@H]1CCOC1 [Afatinib] + CC1(C)CCC(c2ccc(Cl)cc2)=C(CN2CCN(c3ccc(C(=O)NS(=O)(=O)c4ccc(N[C@H](CCN5CCOCC5)CSc5ccccc5)c(S(=O)(=O)C(F)(F)F)c4)cc3)CC2)C1 [Navitoclax] (partner 0.5 µM)
In short: as §1

[4] = compound: CN(C)C/C=C/C(=O)Nc1cc2c(Nc3ccc(F)c(Cl)c3)ncnc2cc1O[C@H]1CCOC1 [Afatinib] + C[C@]1(O)C[C@@H](c2nc(-c3ccc4ccc(-c5ccccc5)nc4c3)c3c(N)nccn32)C1 [Linsitinib] (partner 1 µM)
In short: as §1

Cell Line	relative viability ([1]; first compound 0.005 µM)	relative viability ([1]; first compound 0.01581 µM)	relative viability ([1]; first compound 0.05 µM)	relative viability ([1]; first compound 0.1581 µM)	relative viability ([1]; first compound 0.5 µM)	relative viability ([2]; first compound 0.005 µM)	relative viability ([2]; first compound 0.01581 µM)	relative viability ([2]; first compound 0.05 µM)	relative viability ([2]; first compound 0.1581 µM)	relative viability ([2]; first compound 0.5 µM)	relative viability ([3]; first compound 0.005 µM)	relative viability ([3]; first compound 0.01581 µM)	relative viability ([3]; first compound 0.05 µM)	relative viability ([3]; first compound 0.1581 µM)	relative viability ([3]; first compound 0.5 µM)	relative viability ([4]; first compound 0.005 µM)	relative viability ([4]; first compound 0.01581 µM)	relative viability ([4]; first compound 0.05 µM)	relative viability ([4]; first compound 0.1581 µM)	relative viability ([4]; first compound 0.5 µM)
LCLC-97TM1	0.175	0.286	0.313	0.184	0.211	0.793	0.784	0.861	0.628	0.646	0.383	0.546	0.411	0.344	0.455	0.176	0.179	0.167	0.156	0.205
HARA	0.45	0.652	0.397	0.313	0.397	0.586	0.543		0.458	0.58	1.17	1.12	1.06	0.677	0.866	0.481	0.803	0.238	0.209	0.26
HCC-78	0.373	0.345	0.273	0.228	0.217	0.433	0.404	0.422	0.345	0.376	0.776	0.76	0.62	0.636	0.679	0.53	0.482	0.436	0.413	0.395
NCI-H1666	0.968	0.605	0.505		0.497	1	1.03	1.03	0.811	0.712	0.887	0.748	0.583		0.389	0.724	0.743	0.56		0.561
NCI-H2347	1.11	0.979	1.1	1.1	0.889	0.628	0.73	0.587	0.524	0.565	0.932	0.79	0.873	0.903	0.804	1.04	0.933	1.03	1.08	1.03
NCI-H838	0.93	1.1	1.06	0.905	1.1	0.695	0.74	0.74	0.639	0.801	1.12	1.14	1.27	1.2	1.16	1.04	0.949	1.07	0.952	1.06
NCI-H2023	0.608	0.544	0.446	0.408	0.434	0.445	0.566	0.592	0.556	0.549	1.01	1.01	0.876	0.792	0.854	0.577	0.494	0.453	0.355	0.414
201T	1	0.961	0.922	0.918	0.935	0.936	0.902	0.922	0.783	0.957	1.18	1.2	1.21	1.15	1.23	1.06	0.986	0.909	0.86	0.897
NCI-H1915	1.09	1.09	1.06	1.02	0.972	0.525	0.518	0.497	0.476	0.464	0.795	0.763	0.779	0.813	0.778	1.13	1.08	1.11	1.07	1.07
NCI-H2009	1.23	1.15	1.22	1.17	1.14	0.772	0.775	0.812	0.701	0.755	1.19	1.12	1.27	1.15	1.18	1.23	1.14	1.23	1.13	1.22
BEN	1.25	1.07	1.18	1.06	1.1	0.588	0.564	0.559	0.557	0.574	0.0693	0.0755	0.16	0.0734	0.0635	0.988	0.875	1.01	0.895	0.962
PC-14	0.169	0.15	0.137	0.127	0.163	0.112	0.0624	0.108	0.0886	0.124	0.377	0.334	0.372	0.334	0.349	0.271	0.255	0.176	0.237	0.23
SK-MES-1	0.823	0.653	0.396	0.309	0.32	0.542	0.816	0.509	0.54	0.506	1.16	0.965	0.655	0.731	0.556	1	0.975	0.543	0.406	0.429
NCI-H727	0.579	0.462	0.503	0.417	0.561	1.08	0.953	1	0.906	0.956	0.371	0.349	0.407	0.345	0.353	0.282	0.307	0.284	0.267	0.28
NCI-H1355	0.782	0.89	0.918	0.656	0.645	0.597	0.585	0.545	0.553	0.552	0.807	1.02	0.823	0.764	0.792	0.744	0.828	0.728	0.586	0.662
NCI-H1975	0.628	0.511	0.43	0.197	0.206	0.711	0.667	0.59	0.357	0.26	1.19	1.14	1.24	0.488	0.624	0.901	1.1	0.794	0.261	0.217
LK-2	1.34		1.04	1.12	1.12	0.349	0.269	0.277	0.2	0.382	1.02	0.779	0.868	0.883	0.835	0.6	0.589	0.742	0.478	0.666
NCI-H661	0.666	0.389	0.475	0.398	0.349	0.867	0.738	0.755	0.64	0.63						0.669	0.531	0.516	0.375	0.294
HCC-366	0.375	0.423	0.41	0.308	0.485	0.329	0.36	0.348	0.36	0.345	1.14	1.04	1.18	1	1.06	0.764	0.669	0.56	0.541	0.618

Cell Line	relative viability ([1]; first compound 0.005 µM)	relative viability ([1]; first compound 0.01581 µM)	relative viability ([1]; first compound 0.05 µM)	relative viability ([1]; first compound 0.1581 µM)	relative viability ([1]; first compound 0.5 µM)	relative viability ([2]; first compound 0.005 µM)	relative viability ([2]; first compound 0.01581 µM)	relative viability ([2]; first compound 0.05 µM)	relative viability ([2]; first compound 0.1581 µM)	relative viability ([2]; first compound 0.5 µM)	relative viability ([3]; first compound 0.005 µM)	relative viability ([3]; first compound 0.01581 µM)	relative viability ([3]; first compound 0.05 µM)	relative viability ([3]; first compound 0.1581 µM)	relative viability ([3]; first compound 0.5 µM)	relative viability ([4]; first compound 0.005 µM)	relative viability ([4]; first compound 0.01581 µM)	relative viability ([4]; first compound 0.05 µM)	relative viability ([4]; first compound 0.1581 µM)	relative viability ([4]; first compound 0.5 µM)
HOP-62	0.977	0.599	1.14	1.08	0.689	0.736	0.655	0.746	0.727	0.673	1.3	1.09	1.19	1.11	1.09	1.03	1.13	1.2	1.03	1.04
NCI-H1944	0.677	0.763	0.693	0.465	0.518	0.514	0.562	0.42	0.413	0.406	1.04	0.959	0.903	0.668	0.765	1.04	0.904	0.776	0.566	0.571
SW 1573	0.778	0.805	0.805	0.811	0.668	0.696	0.682	1.01	0.692	0.777	0.878	1.08	1.13	0.819	0.943	0.773	0.865	0.649	0.731	0.703
EBC-1	0.787	0.835	0.905	0.81	0.915						0.507	0.457	0.465	0.396	0.343	0.72	0.827	0.903	0.783	0.903
NCI-H1648						0.398	0.421	0.271	0.421	0.26										
SW 900						0.597	0.364	0.544	0.428	0.461										
ABC-1	1.26	0.856	0.947	0.931	0.988	1.47		1.13	1.24	1.08						0.851	0.647	0.788	0.466	0.584
NCI-H1792	0.64	0.732	0.722	0.674	0.668						0.745	0.537	0.587	0.629	0.625	0.533	0.616	0.497	0.533	0.484
NCI-H1563	0.953	0.953	0.87	0.83	1.03											1.32	1.14	1.27	1.06	1.21
NCI-H1299	1.05	1.04	1.12	1.08	1.04						1.02	1.02	1.13	1.11	1.06	0.978	0.951	0.987	1.06	0.97
ChaGo-K-1						0.81	0.777	0.789	0.754	0.695	1.12	0.707	0.979	0.826	1.05					
NCI-H2170	0.571	0.421	0.314	0.207	0.233	0.618	0.697	0.271	0.201	0.2	0.481	0.454	0.284	0.187	0.2					
NCI-H522						0.865	0.928	0.829	0.7	0.721										
A549	0.629	0.632	0.631	0.61	0.642						1.3	1.11	1.2	1.09	1.16	0.608	0.435	0.533	0.433	0.467
NCI-H358	0.668	0.488	0.324	0.255	0.37	0.514	0.432	0.375	0.207	0.253						0.466	0.329	0.366	0.318	0.264
NCI-H650	1.23	1.11	1.14	1.25	1.06	0.469	0.395	0.551	0.515	0.316						0.872	0.706	1.03	0.999	0.697
LCLC-103H	0.806	1.09	0.997	0.939	1	0.809	0.817	0.703	0.732	0.704						1.09	0.943	1.02	0.99	0.99
NCI-H1650						0.462	0.424	0.599	0.472	0.432	0.979		1.25	0.962	1.22					
Calu-6	1.05	0.922	1.03	1.01	0.88						0.836	0.786	0.831	0.914	0.81	0.858	0.876	1.06	0.933	0.891
